One experiment relates to Syn^Tg mice. The experiment is described as follows: Morris Water Maze, Syn^Tg mice. Format: in vivo. The settings on record: EHT 12 mg/kg/day in chow and/or caffeine 50 mg/kg/day in drinking water from weaning until six months of age, vs untreated Syn^Tg mice. The text has this:
(§1) Thy1-α-synuclein transgenic mice (Syn^Tg) on BDF1 background overexpressing human wild-type α-synuclein under the control of the Thy1 promoter were maintained by mating heterozygous transgenic females with WT BDF1 males (Rockenstein E, et al. (2002) Differential neuropathological alterations in transgenic mice expressing alpha-synuclein from the platelet-derived growth factor and Thy-1 promoters. J Neurosci Res 68(5):568-578). BDF1 mice (mixed C57BL/6-DBA/2) were generated every three months by mating female C57BL/6 (The Jackson Laboratory) and male DBA/2 mice (Charles River). Experiments were performed with male transgenic mice and their WT littermates. […] Wild-type littermates received regular water and control chow. […] At two months of age, mice were inoculated with α-Syn PFF unilaterally in the striatum. These treatments continued throughout the experiment until animals were sacrificed. Mice were weighed and their food and water intake was quantified weekly. Animals were housed 2-5/cage in an AAALAC approved facility in a temperature- and humidity-controlled environment under a 12-hour light/dark cycle and were maintained on a diet of lab chow and water ad libitum. […]

Experiment [1] addresses T1, PP2A methylesterase (PME-1) (Homo sapiens, UniProt Q9Y570).
T1 sequence (Q9Y570 1-386): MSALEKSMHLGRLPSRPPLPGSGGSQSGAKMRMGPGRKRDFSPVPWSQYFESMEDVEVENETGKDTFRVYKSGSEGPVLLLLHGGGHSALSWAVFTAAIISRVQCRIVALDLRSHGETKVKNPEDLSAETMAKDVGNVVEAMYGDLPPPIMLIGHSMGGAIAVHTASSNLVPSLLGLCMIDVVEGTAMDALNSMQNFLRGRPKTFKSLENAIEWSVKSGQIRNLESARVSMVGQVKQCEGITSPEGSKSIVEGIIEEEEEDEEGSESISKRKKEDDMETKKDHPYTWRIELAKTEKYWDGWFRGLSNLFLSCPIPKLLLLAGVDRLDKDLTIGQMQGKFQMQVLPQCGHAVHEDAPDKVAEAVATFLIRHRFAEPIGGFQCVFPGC
The settings on record: cited from earlier work.

In a further experiment the test system is Iba1. The experiment is described as follows: Immunohistochemical staining of Iba-1 in the striatum, Syn^Tg mice. Format: in vivo. The settings on record: EHT 12 mg/kg/day and/or caffeine 50 mg/kg/day until six months of age. The text has this: Neuroinflammation is one of the neuropathological features of PD and models of α-synucleinopathy including Syn^Tg mice (Lee K W, et al. (2011) Enhanced phosphatase activity attenuates alpha-synucleinopathy in a mouse model. J Neurosci 31(19):6963-6971).
Thy1-α-synuclein transgenic mice (Syn^Tg) on BDF1 background overexpressing human wild-type α-synuclein under the control of the Thy1 promoter were maintained by mating heterozygous transgenic females with WT BDF1 males (Rockenstein E, et al. (2002) Differential neuropathological alterations in transgenic mice expressing alpha-synuclein from the platelet-derived growth factor and Thy-1 promoters. J Neurosci Res 68(5):568-578). BDF1 mice (mixed C57BL/6-DBA/2) were generated every three months by mating female C57BL/6 (The Jackson Laboratory) and male DBA/2 mice (Charles River). Experiments were performed with male transgenic mice and their WT littermates. […] Wild-type littermates received regular water and control chow. […] Mice were weighed and their food and water intake was quantified weekly. […]
(§2) Vectastain elite ABC kit (Vector Laboratories, Burlingame, Calif.) and 3,3′-diaminobenzidine (Sigma-Aldrich) were used for amplifying and color development. […] For other stains, the whole microscopic field was analyzed. For p-α-Syn stains in the cortex, four matching regions in each of two sections per animal were counted.

For experiment [2], the system named is Tyrosine hydroxylase (TH). The experiment is described as follows: Striatal TH staining, α-Syn PFF inoculated WT mice. It is filed as in vivo. The settings on record: EHT 12 mg/kg/day and/or caffeine 50 mg/kg/day, vs untreated α-Syn PFF inoculated mice.
Excerpt: as §1

Another experiment deals with c-fos. The experiment is described as follows: Immunohistochemical staining of c-fos in the hippocampus, Syn^Tg mice. Format: in vivo. The settings on record: EHT 12 mg/kg/day and/or caffeine 50 mg/kg/day until six months of age.
Excerpt: as §1, with “weekly.” for “weekly. Animals were housed 2-5/cage in an AAALAC approved facility in a temperature- and humidity-controlled environment under a 12-hour light/dark cycle and were maintained on a diet of lab chow and water ad libitum.”
as §2

Experiment [3] concerns α-Syn PFF inoculated WT mice. The experiment in a line: Morris Water Maze, α-Syn PFF inoculated WT mice. It is filed as in vivo. The settings on record: EHT 12 mg/kg/day and/or caffeine 50 mg/kg/day, 6 months post-inoculation, test also not affected by PFF inoculation.
Excerpt: as §1

The text below walks through data of patent publication US20210369720A1, “SYNERGISTIC COMPOSITION HAVING NEUROPROTECTIVE PROPERTIES AND METHODS OF USE THEREOF” (Rutgers, The State University of New Jersey, priority 2018, published 2021).

Molecules are shown by their SMILES.

As to `CCCCCCCCCCCCCCCCCCCC(=O)NCCc1c[nH]c2ccc(O)cc12` [EHT, eicosanoyl-5-hydroxytryptamide], the “performance on the Morris Water Maze” value in the experiment on Syn^Tg mice is given as “did not improve performance”. Besides, the “inhibition of the activity of the PP2A methylesterase (PME-1)” value in experiment [1] is reported as “inhibit the activity”. Further, the “microglial activation (Iba1) in the striatum” value with Iba1 was “partially but insignificantly attenuated”. The “TH staining of dopaminergic terminals in the striatum (ipsilateral and contralateral)” value in experiment [2] is reported as “non-significant increase”. Also, in the experiment with c-fos, the “c-fos immunoreactivity in the hippocampus” value is “failed to increase c-fos immunoreactivity significantly”. In addition, the “Learning and memory task on the Morris Water Maze” value in experiment [3] was “not affected”.
